Laboratory results from patent publication US5610177A, “Acylated amino acids as endothelin antagonists” (Warner-Lambert Company, priority 1994, dated 1997).

How the values were obtained:
[1] = molecular target: T1, endothelin receptor of rabbit renal artery vascular smooth muscle cells (Oryctolagus cuniculus, UniProt A5A8K3); assay type: binding; conditions: [125I]-ET-1 25 pM, 37° C., 2 hours, read-out: IC50 ERBA-A
T1 sequence (A5A8K3 21-427): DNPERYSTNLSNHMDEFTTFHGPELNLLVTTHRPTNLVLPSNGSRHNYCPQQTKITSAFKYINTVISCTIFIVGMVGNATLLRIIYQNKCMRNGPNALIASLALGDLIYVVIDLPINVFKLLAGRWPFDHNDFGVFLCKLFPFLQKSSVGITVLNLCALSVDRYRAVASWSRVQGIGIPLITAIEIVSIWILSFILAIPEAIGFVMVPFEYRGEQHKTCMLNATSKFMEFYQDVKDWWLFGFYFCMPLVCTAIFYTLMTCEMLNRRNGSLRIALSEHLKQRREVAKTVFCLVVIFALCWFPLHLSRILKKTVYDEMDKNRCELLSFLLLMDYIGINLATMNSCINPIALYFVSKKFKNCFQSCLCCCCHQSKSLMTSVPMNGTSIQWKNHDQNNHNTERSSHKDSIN
From the text: The compounds of Formula I are valuable antagonists of endothelin.

ETB receptors [2] = molecular target: T2, ETB receptors (Homo sapiens, UniProt P24530); assay: HERBA-B, [125I]-ET-1 binding to recombinant human ETB receptor expressed in CHO-K1 cell membranes; set-up: expressed in transfected cells; host or cells: CHO-K1 cells (membranes)
T2 sequence (P24530 27-442): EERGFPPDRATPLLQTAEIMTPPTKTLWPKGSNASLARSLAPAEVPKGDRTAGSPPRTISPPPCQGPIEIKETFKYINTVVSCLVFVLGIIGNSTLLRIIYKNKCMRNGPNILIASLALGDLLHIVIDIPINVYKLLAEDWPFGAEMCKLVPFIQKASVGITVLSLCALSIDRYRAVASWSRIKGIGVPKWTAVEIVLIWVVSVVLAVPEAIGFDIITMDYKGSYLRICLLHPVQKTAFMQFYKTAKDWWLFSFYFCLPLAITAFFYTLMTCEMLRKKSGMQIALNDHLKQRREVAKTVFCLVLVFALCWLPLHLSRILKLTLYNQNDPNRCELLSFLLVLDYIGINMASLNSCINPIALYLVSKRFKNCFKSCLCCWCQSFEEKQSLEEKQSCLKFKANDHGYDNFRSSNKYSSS
Procedure: The compounds of Formula I are valuable antagonists of endothelin. […] The above process has also been modified by using human recombinant CHO-K1 cells. […] The gene for human ETB receptor was cloned and inserted into the pRc-CMW expression vector, then transfected into CHO-K1 cells by electroporation. For binding assays, membranes (0.7 mg protein) of CHO-K1 cells expressing recombinant human ETB receptor were used.

ETA and ETB receptors = conditions: cited from earlier work
ETB receptors [3] = molecular target: T2, ETB receptors; assay: AAR-B, inhibition of ET-3 stimulated arachidonic acid release in CHO cells expressing recombinant ETB receptors; assay type: cell-based; set-up: expressed in transfected cells; host or cells: Chinese hamster ovary (CHO) cells; conditions: ET-3 (1.0 nM) stimulated [3H]arachidonic acid release, read-out: IC50 AAR-B (Antagonist)

| SMILES | IC50 [1] [µM] | IC50 (ETB receptors [2]) [µM] | IC50 (ETB receptors [3]) [µM] | ETA/ETB receptor antagonism and selectivity (ETA and ETB receptors) |
| --- | --- | --- | --- | --- |
| Cc1noc(NS(=O)(=O)c2cccc3c(N(C)C)cccc23)c1C [BMS182874] |  |  |  | ETA specific antagonists |
| Cc1cccc(CC(Cc2cccc(C)c2C)C(=O)N[C@](C)(Cc2c[nH]c3ccccc23)C(=O)O)c1C [Example 4] | > 25 | 2.9 |  |  |
| C[C@](Cc1c[nH]c2ccccc12)(NC(=O)C(Cc1ccccc1)Cc1ccccc1)C(=O)O [Example 5, Di-benzylacetyl-(α-methyl-D-tryptophan)] | > 25 | 19 |  |  |
| C[C@](Cc1c[nH]c2ccccc12)(NC(=O)C(Cc1c(F)c(F)c(F)c(F)c1F)Cc1c(F)c(F)c(F)c(F)c1F)C(=O)O [Example 7, Bis-(2,3,4,5,6-pentafluorophenylmethyl)acetyl-(α-methyl-D-tryptophan)] | > 25 | 27 |  |  |
| Cc1ccccc1CC(Cc1ccccc1C)C(=O)N[C@](C)(Cc1c[nH]c2ccccc12)C(=O)O [Example 10, Bis-(2-methylphenylmethyl)acetyl-(α-methyl-D-tryptophan)] | > 25 | 1.5 | 9.5 |  |
| Cc1cccc(CC(Cc2cccc(C)c2)C(=O)N[C@](C)(Cc2c[nH]c3ccccc23)C(=O)O)c1 [Example 11, Bis-(3-methylphenylmethyl)acetyl-(α-methyl-D-tryptophan)] | > 25 | 4.7 | 9.9 |  |
| CC(Cc1cccc2ccccc12)(Cc1cccc2ccccc12)C(=O)N[C@](C)(Cc1c[nH]c2ccccc12)C(=O)O [Example 12, Bis-2-(1-naphthylmethyl)-2-methylacetyl-(α-methyl-D-tryptophan)] | > 25 | 10 |  |  |
| C[C@](Cc1c[nH]c2ccccc12)(NC(=O)C(CC1CCCCC1)CC1CCCCC1)C(=O)O [Example 16, Bis-(cyclohexylmethyl)acetyl-(α-methyl-D-tryptophan)] | > 25 | 7.4 |  |  |

Second part, led by results:

| IC50 [1] [µM] | IC50 (ETB receptors [2]) [µM] | IC50 (ETB receptors [3]) [µM] | SMILES | ETA/ETB receptor antagonism and selectivity (ETA and ETB receptors) |
| --- | --- | --- | --- | --- |
| 14 | 6.5 |  | CC(Cc1ccccc1)(NC(=O)C(Cc1cccc2ccccc12)Cc1cccc2ccccc12)C(=O)O (racemic) [Example 13, Bis-(1-naphthylmethyl)acetyl-(α-methyl-D, L-phenylalanine)] |  |
| 25 | 18 |  | CC(Cc1ccc(O)cc1)(NC(=O)C(Cc1cccc2ccccc12)Cc1cccc2ccccc12)C(=O)O (racemic) [Example 14, Bis-(1-naphthylmethyl)acetyl-(α-methyl-D, L-tyrosine)] |  |
| > 25 | 1.6 |  | C[C@](Cc1c[nH]c2ccccc12)(NC(=O)C(Cc1ccc2c(c1)OCO2)Cc1ccc2c(c1)OCO2)C(=O)O [Example 2, Bis-(3,4-methylenedioxyphenylmethyl)acetyl-(α-methyl-D-tryptophan)] |  |
| > 25 | 16 |  | C[C@](Cc1c[nH]c2ccccc12)(NC(=O)C(Cc1ccc2ccccc2c1)Cc1ccc2ccccc2c1)C(=O)O [Example 3, Bis-(2-naphthylmethyl)acetyl-(α-methyl-D-tryptophan)] |  |
| 14 | 1.4 |  | C[C@](Cc1c[nH]c2ccccc12)(NC(=O)C(Cc1cccc2c1CCCC2)Cc1cccc2c1CCCC2)C(=O)O [Example 6, Bis-(5,6,7,8-tetrahydro-1-naphthylmethyl)acetyl-(α-methyl-D-tryptophan)] |  |
| 26 | 2.2 | 6.6 | C[C@](Cc1c[nH]c2ccccc12)(NC(=O)C(Cc1ccccc1)Cc1cccc2ccccc12)C(=O)O (stereo partly drawn) [Example 9, 2-(1-Naphthylmethyl)-2-benzylacetyl-(α-methyl-D-tryptophan)] |  |
| 14 | 9.2 |  | C[C@](Cc1c[nH]c2ccccc12)(NCC(Cc1cccc2ccccc12)Cc1cccc2ccccc12)C(=O)O [Example 15, N-[2-bis-(1-naphthylmethyl)ethyl]-(α-methyl-D-tryptophan)] |  |
